Source: patent US8673376B2, “Polyphenol-containing composition for oral administration or external use and use of same” (Biotherapy Development Research Center Co., Ltd., priority 2009, dated 2014)

Tests used:
[1] = test system: Mouse melanoma cells B16F1; assay: Melanin production inhibition test, B16F1 cells; type: cell-based; conditions: control = 100; for Melanin production rate: α-MSH 100 ng/mL, 72 hours
Protocol: Mouse melanoma cells B16F1 were the third or higher passage cultured in Dulbecco's Modified Eagle Medium (D-MEM) containing 10% FBS (manufactured by Nissui Pharmaceutical Co., Ltd.) mixed with 0.5% penicillin-streptomycin (manufactured by Gibco).
(§1) The test samples were the freeze-dried products of the hot water extract obtained in Preparation 1 (1) and the fractions eluted with 10% and 50% aqueous ethanol solutions obtained in Preparation 1 (2).
(a) Amount of Melanin Production • 960 μL of mouse cells B16F1 cultured in D-MEM culture medium containing 10% FBS was seeded on a 24-well plate to give a final concentration of 1.0×10^5 cells/well (seeding concentration: 1.04×10^5 cells/mL), and cultured for 24 hours in a CO^2 incubator. 20 μL of melanin production hormone (α-MSH) adjusted to a final concentration of 100 ng/mL (addition concentration: 5.0 μg/mL) and 20 μL of test sample adjusted to 10 μg/mL (500 μg/mL) or 100 μg/mL (5000 μg/mL) were added, and cultured for 72 hours. The culture medium was removed, washed with PBS, and then 100 μL of a trypsin EDTA solution was added thereby removing the cells from the plate, and 900 μL of 1N sodium hydroxide aqueous solution was added. The cells were allowed to stand at room temperature for 20 to 24 hours thereby causing cytolysis, and then the melanin content was measured at an absorbance of 475 nm.

[2] = test system: Human melanoma cells (HMVII); assay: Melanin production inhibition test, HMVII cells; type: cell-based; conditions: control = 100
Excerpt: Human melanoma cells (HMVII) were the third or higher passage cultured in a culture solution of a Ham F-12 culture medium (manufactured by Nissui Pharmaceutical Co., Ltd.) containing 10% FBS, mixed with 0.5% penicillin-streptomycin (manufactured by Gibco). The test samples were the freeze-dried products of the hot water extract obtained in Preparation 1 (1) and the fractions eluted with 10% and 50% aqueous ethanol solutions obtained in Preparation 1 (2). […] The culture medium was removed, washed with PBS, and then 100 μL of a trypsin EDTA solution was added thereby removing the cells from the plate, and 900 μL of 1N sodium hydroxide aqueous solution was added. The cells were allowed to stand at room temperature for 20 to 24 hours thereby causing cytolysis, and then the melanin content was measured at an absorbance of 475 nm.

[3] = test system: tyrosinase; assay: Tyrosinase activity inhibition test; type: biochemical; conditions: DOPA substrate, control = 100
Protocol: as §1
0.5 mL of substrate (DOPA) solution adjusted to the final concentration of 0.03% with a phosphoric acid buffer was mixed with 0.5 mL of test sample solution prepared using a phosphoric acid buffer, and cooled on ice. 0.5 mL of tyrosinase solution adjusted to the final concentration of 45 U/mL with a phosphoric acid buffer was added to the mixture, incubated at 25° C. for 5 minutes, and then the absorbance at 475 nm was measured. The reaction rate (activity) of tyrosinase was calculated from the difference of the absorbance. In order to eliminate the influence of the color of the test sample, the absorbance of a mixture containing a phosphoric acid buffer in place of the tyrosinase solution was measured, thereby correcting the absorbance.

SMILES: OC[C@H]1O[C@@H](Oc2ccc(O)cc2)[C@H](O)[C@@H](O)[C@@H]1O [β arbutin]
- Melanin production rate after correction of survival rate ([1]; 10 μg/mL): 83.48%
- Melanin production rate ([1]; 10 μg/mL): 95.41%
- Melanin production rate after correction of survival rate ([1]; 100 μg/mL): 82.52%
- Melanin production rate ([1]; 100 μg/mL): 93.76%

SMILES: O=C1O[C@H]([C@@H](O)CO)C(O)=C1O [Ascorbic acid]
- Melanin production rate after correction of survival rate ([2]; 10 μg/mL): 102.74%
- Melanin production rate after correction of survival rate ([2]; 100 μg/mL): 95.60%
- Melanin production rate ([2]; 100 μg/mL, α-MSH 100 ng/mL, 72 hours): 94.76%

SMILES: O=c1cc(CO)occ1O [Kojic acid]
- Reaction rate of tyrosinase ([3]; 10 μg/mL): 42.35%
- Reaction rate of tyrosinase ([3]; 100 μg/mL): 8.71%
